# pIC50: −log10 of the molar value.
# What was measured:
# [1] = biological target: hSTING-WT (Homo sapiens (Human), UniProt Q86WV6, H232R); test: Radiometric filtration binding competition assay, hSTING-WT
# Experimental: A radiometric filtration binding competition assay was performed to quantify the binding affinity of compounds of the present application for the human or mouse STING protein, or associated HAQ human isoform. […] The resulting dose response was fit by non-linear regression to determine an IC50 value, from which a Ki value for each compound was extrapolated.
# The resulting complexes were then filtered, dried, and scintillation fluid was added and the remaining radio signal was measured to determine the degree of compound ligand inhibition. This assay format was optimized for both the WT and HAQ isoforms of the human protein and the mouse orthologue protein.
# Probe Concentration: Minimum concentration that achieved max assay window • g. Assay Format: Scintillation Proximity Bead or Filtration Binding Plate • h. […] Assay incubation times for successive incubation steps
# WT-hSWAT: WT_FBA_HIS-SUMO-hSWAT IC50 (μM) (“WT”=Wild-type); HAQ-hSWAT: HAQ_FBA_HIS-SUMO-hSWAT IC50 (μM) (“HAQ”=human HAQ allele of STING protein); and WT-mSWAT: MOUSE_FBA_HIS-SUMO-mnSWAT IC50 (μM) which is the mouse isoform of STING protein.
# [2] = biological target: hSTING-R232 (Homo sapiens (Human), UniProt Q86WV6, H232R); test: STING differential scanning fluorimetry (DSF) assay, WT human STING; settings: WT (R232) human STING aa140-379, net shift in melting temperature
# Experimental: A STING DSF assay was performed to determine protein thermostability shift in response to small molecule ligand binding. A STING thermostability shift assay based on differential scanning fluorimetry was used to measure (1) the net shift in melting temperature (ΔTm)between the apo and ligand-bound states of the STING protein and (2) the concentration of the thermal denaturation transition (EC50) as a surrogate measure of binding affinity (K). […] Protein in assay buffer was transferred to a 384 well plate and incubated with the hydrophobic fluorescent dye SYBR Orange. A temperature ramp was applied to the plate and the resulting dye fluorescence was plotted as a function of temperature. The first derivative of this function (dF/dT) was then used to extrapolate the melting temperature of the protein at various concentrations of compound and determine the thermal denaturation profile of a protein/compound complex.
# • 1. Protein construct (affinity tag removal vs SUMO-fusion construct) • 2. Protein concentration • 3. Dye concentration • 4. Buffer • 5. Thermal ramp velocity • 6. DMSO tolerance • 7. Compound titration parameters • 8. […] 5 μM purified Target STING Protein • 3. 8 μM Sypro Orange Dye • 4. Buffer: 100 mM NaCl, 30 mM HEPES, pH 7.5 • 5. Thermal Ramp: 0.5° C./min • 6. <1% DMSO • 7. 11 point, 2 fold dilution, duplicate, 300 μM high concentrations • 8.
# [3] = biological target: STING protein (Homo sapiens (Human), UniProt Q86WV6, H232R); test: Cell based reporter assay of IRF activation (IRF-luciferase), THP1-dual-KI R232; settings: read-out: THP1-dual-KI R232_IRF(Luciferase)_Activity Maximum measured (%)
# Sequence of STING protein (Q86WV6 whole entry H232R): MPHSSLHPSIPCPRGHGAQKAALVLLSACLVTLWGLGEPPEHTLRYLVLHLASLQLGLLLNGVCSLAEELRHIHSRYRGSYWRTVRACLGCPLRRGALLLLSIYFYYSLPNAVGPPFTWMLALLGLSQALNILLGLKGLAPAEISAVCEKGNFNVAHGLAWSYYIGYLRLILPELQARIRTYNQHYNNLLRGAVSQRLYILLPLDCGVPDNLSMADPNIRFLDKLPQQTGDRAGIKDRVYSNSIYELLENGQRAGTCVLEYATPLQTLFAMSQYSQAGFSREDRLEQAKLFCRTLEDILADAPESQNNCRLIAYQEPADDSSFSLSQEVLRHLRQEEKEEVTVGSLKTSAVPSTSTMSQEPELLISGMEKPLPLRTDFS
# Text: Briefly, THP-1 monocytes were transfected and selected for stable integration of 2 reporter constructs. Clones incorporating stably integrated vectors were further selected by antibiotic resistance to blastocidin and zeocin. The reporter constructs included: (1) firefly luciferase reporter gene under the control of an ISG54 promoter fused to five interferon (IFN)-stimulated response elements to measure IRF transcription factor binding activity and (2) secreted embryonic alkaline phosphatase reporter gene under transcription control of an IFN-beta minimal promoter fused to 5 copies of the NFkB consensus transcriptional response element and 3 copies of the c-Rel binding site.
# The resulting THP-1 cell line was further modified to incorporate 3 amino acid point mutations (H71R A230G Q293R). This modification of the native TMEM173 gene in THP-1 cells (HAQ) was designed to produce a cell reporter that expressed the most common allelic variant in the human population (THP-1 R232, available from InvivoGen). Alternatively, the TMEM173 gene was knocked out to provide a congenic control to counter-screen for compound activation that was independent of the STING protein (THP-1 STING KO).
# Once cell lines were established, reporter assay protocols were developed and optimized to screen small molecule compounds for agonist activity. Assay optimization for efficacy and Z′ value included titration of the following parameters:
# • 1. Cell pre-activation with PMA • 2. Cell seeding density • 3. DMSO tolerance • 4. Media selection • 5. FBS concentration • 6. Incubation time • 7. Co-Assessment of cell viability by CTG assay • 8. Appropriate HPE and ZPE controls • 9. Dose Response Titration Final Assay SOP Conditions • 1. No pre-activation with PMA • 2. 5×10^4 cells/well in 96 well plate format • 3. <0.5% DMSO • 4. […] 10% FBS • 6. 14-18 hr incubation • 7. Cell Titer Glo reagent (Promega) following supernatant removal • 8.
# Sequence of hSTING-R232 (Q86WV6 140-379 H232R): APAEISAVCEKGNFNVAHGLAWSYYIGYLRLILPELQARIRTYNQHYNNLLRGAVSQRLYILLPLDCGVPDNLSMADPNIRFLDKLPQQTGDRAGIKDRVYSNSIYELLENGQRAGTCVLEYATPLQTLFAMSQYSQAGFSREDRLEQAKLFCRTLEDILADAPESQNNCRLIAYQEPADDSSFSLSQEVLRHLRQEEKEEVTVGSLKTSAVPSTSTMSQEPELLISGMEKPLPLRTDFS
# Sequence of hSTING-WT (Q86WV6 140-379 H232R): as above
pIC50 [1],WT_DSF_hSWAT Tm Shift (° C.) [2],Emax [3] [%],SMILES
4.00 to 4.70,"C (“C” = 2-7° C,)",,COc1c(Cl)ccc2c(=O)c3ccc(C4CCOCC4)cc3n(CC(=O)O)c12 [Compound 255]
< 3.52,"C (“C” = 2-7° C,)",> 50,CCS(=O)(=O)NC(=O)Cn1c2cc(C)ccc2c(=O)c2ccc(Cl)c(OC)c21 [Compound 349]
,"C (“C” = 2-7° C,)",5 to 25,O=C(O)Cn1c2cc(C3CCC(O)CC3)ccc2c(=O)c2ccc(Cl)c(Cl)c21 (centres unmarked) [Compound 264]
4.00 to 4.70,A (“A” < 0° C.),< 5,Cc1ccc2c(=O)c3ccc(Cl)c(Cl)c3n(CC(=O)O)c2c1C [Compound 134]
4.00 to 4.70,"C (“C” = 2-7° C,)",> 50,C[C@@H]1CCCN1c1ccc2c(=O)c3ccc(Cl)c(Br)c3n(CC(=O)O)c2c1 [Compound 203]
3.52 to 4.00,A (“A” < 0° C.),,O=C(Cn1c2ccccc2c(=O)c2ccc(Cl)c(Cl)c21)NO [Compound 353]
4.00 to 4.70,D (“D” > 7° C.),,COc1c(Cl)ccc2c(=O)c3ccc(C(C)C)cc3n(CC(=O)O)c12 [Compound 245]
3.52 to 4.00,"C (“C” = 2-7° C,)",,CC(C)Oc1c(Cl)ccc2c(=O)c3ccccc3n(CC(=O)O)c12 [Compound 246]
4.00 to 4.70,D (“D” > 7° C.),> 50,COc1c(Cl)ccc2c(=O)c3ccc(-c4ccncc4)cc3n(CC(=O)O)c12 [Compound 278]
3.52 to 4.00,"C (“C” = 2-7° C,)",25 to 50,COc1c(Cl)ccc2c(=O)c3ccc(C)cc3n(CC(=O)NC#N)c12 [Compound 338]
< 3.52,"C (“C” = 2-7° C,)",,Cn1ccc(-c2ccc3c(=O)c4ccc(Cl)c(Cl)c4n(CC(=O)O)c3c2)n1 [Compound 184]
< 3.52,B (“B” = 0-2° C.),< 5,O=C(O)Cn1c2ccccc2c(=O)c2ccc(Cl)c(Oc3ccccc3)c21 [Compound 287]
3.52 to 4.00,A (“A” < 0° C.),,O=C(O)Cn1c2ccccc2c(=O)c2ccc(Cl)c(OC3CCC3)c21 [Compound 247]
< 3.52,A (“A” < 0° C.),,O=C(O)Cn1c2cc(C(O)(C(F)(F)F)C(F)(F)F)ccc2c(=O)c2ccc(Cl)c(Cl)c21 [Compound 167]
3.52 to 4.00,"C (“C” = 2-7° C,)",> 50,COc1c(Cl)ccc2c(=O)c3ccc(C)cc3n(CC(=O)NS(=O)(=O)C3CC3)c12 [Compound 348]
4.00 to 4.70,A (“A” < 0° C.),< 5,CC(C)c1ccc2c3ccc(Cl)c(Cl)c3n(CC(=O)O)c2c1 [Compound 210]
< 3.52,B (“B” = 0-2° C.),,O=C(O)Cn1c2cc(C(F)F)ccc2c(=O)c2ccc(Cl)c(Cl)c21 [Compound 166]
< 3.52,"C (“C” = 2-7° C,)",5 to 25,CCCOc1c(Cl)ccc2c(=O)c3ccccc3n(CC(=O)O)c12 [Compound 284]
< 3.52,A (“A” < 0° C.),,O=C(O)Cn1c2ccccc2c2ccc(Cl)c(Cl)c21 [Compound 209]
4.00 to 4.70,"C (“C” = 2-7° C,)",5 to 25,C[C@H]1CCCN1c1ccc2c(=O)c3ccc(Cl)c(Br)c3n(CC(=O)O)c2c1 [Compound 202]
3.52 to 4.00,"C (“C” = 2-7° C,)",< 5,CC(C)Sc1ccc2c(=O)c3ccc(Cl)c(Cl)c3n(CC(=O)O)c2c1 [Compound 149]
4.00 to 4.70,,,CCOc1c(Cl)ccc2c(=O)c3ccc(C(C)(C)C)cc3n(CC(=O)O)c12 [Compound 224]
4.00 to 4.70,"C (“C” = 2-7° C,)",25 to 50,O=C(O)Cn1c2cc(-c3ccco3)ccc2c(=O)c2ccc(Cl)c(Cl)c21 [Compound 186]
4.00 to 4.70,"C (“C” = 2-7° C,)",> 50,COc1c(Cl)ccc2c(=O)c3ccc(NC(C)C)cc3n(CC(=O)O)c12 [Compound 300]
> 4.70,D (“D” > 7° C.),> 50,COc1c(Cl)ccc2c(=O)c3ccc(SC4CCCCC4)cc3n(CC(=O)O)c12 [Compound 233]
< 3.52,A (“A” < 0° C.),,C[C@@H](C(=O)O)n1c2ccccc2c(=O)c2ccc(Cl)c(Cl)c21 [Compound 100]
> 4.70,D (“D” > 7° C.),> 50,COc1c(Cl)ccc2c(=O)c3ccc(-c4cccc(C)c4)cc3n(CC(=O)O)c12 [Compound 238]
4.00 to 4.70,,,CC(C)c1ccc2c(c1)c1ccc(Cl)c(Cl)c1n2CC(=O)O [Compound 240]

pIC50 [1],WT_DSF_hSWAT Tm Shift (° C.) [2],Emax [3] [%],SMILES
> 4.70,D (“D” > 7° C.),,COc1c(Cl)ccc2c(=O)c3ccc(Nc4ccc(O)cc4)cc3n(CC(=O)O)c12 [Compound 236]
< 3.52,B (“B” = 0-2° C.),25 to 50,CONC(=O)Cn1c2cc(C)ccc2c(=O)c2ccc(Cl)c(OC)c21 [Compound 339]
4.00 to 4.70,D (“D” > 7° C.),,O=C(O)Cn1c2cc(C3CCC(O)CC3)ccc2c(=O)c2ccc(Cl)c(Cl)c21 (centres unmarked) [Compound 214]
4.00 to 4.70,D (“D” > 7° C.),> 50,COc1c(Cl)ccc2c(=O)c3ccc(C)cc3n(CC(=O)O)c12 [Compound 280]
< 3.52,B (“B” = 0-2° C.),,COc1c(Cl)ccc2c(=O)c3ccc(S(C)(=O)=O)cc3n(CC(=O)O)c12 [Compound 249]
< 3.52,A (“A” < 0° C.),,C[C@H](C(=O)O)n1c2ccccc2c(=O)c2ccc(Cl)c(Cl)c21 [Compound 101]
< 3.52,B (“B” = 0-2° C.),< 5,COc1ccc2c(=O)c3ccccc3n(CC(=O)O)c2c1OC [Compound 265]
4.00 to 4.70,"C (“C” = 2-7° C,)",> 50,CC(C)c1ccc2c(=O)c3ccc(Cl)c(Cl)c3n(CC(=O)NS(C)(=O)=O)c2c1 [Compound 352]
4.00 to 4.70,D (“D” > 7° C.),< 5,O=C(O)Cn1c2cc(Nc3cnc(Cl)cn3)ccc2c(=O)c2ccc(Cl)c(Cl)c21 [Compound 258]
3.52 to 4.00,"C (“C” = 2-7° C,)",,O=C(O)Cn1c2cc(-c3cc[nH]n3)ccc2c(=O)c2ccc(Cl)c(Cl)c21 [Compound 182]
< 3.52,B (“B” = 0-2° C.),,COc1c(Cl)ccc2c(=O)c3cc(F)c(C(C)C)cc3n(CC(=O)O)c12 [Compound 248]
< 3.52,B (“B” = 0-2° C.),,CC(O)c1ccc2c(=O)c3ccc(Cl)c(Cl)c3n(CC(=O)O)c2c1 (centres unmarked) [Compound 191]
< 3.52,"C (“C” = 2-7° C,)",< 5,COc1c(Cl)ccc2c(=O)c3ccc(C4CCCNC4)cc3n(CC(=O)O)c12 (centres unmarked) [Compound 227]
< 3.52,"C (“C” = 2-7° C,)",,CC(C)c1ccc2c(=O)c3ccc(I)c(Cl)c3n(CC(=O)O)c2c1 [Compound 195]
3.52 to 4.00,"C (“C” = 2-7° C,)",> 50,COc1c(Cl)ccc2c(=O)c3ccc(C)cc3n(CC(=O)NS(C)(=O)=O)c12 [Compound 347]
4.00 to 4.70,"C (“C” = 2-7° C,)",> 50,CNc1ccc2c(=O)c3ccc(Cl)c(OC)c3n(CC(=O)O)c2c1 [Compound 299]
3.52 to 4.00,"C (“C” = 2-7° C,)",5 to 25,O=C(O)Cn1c2cc(N3CCCC3)ccc2c(=O)c2ccc(Cl)c(Br)c21 [Compound 201]
> 4.70,,,O=C(O)Cn1c2cc([C@H]3CC[C@H](O)CC3)ccc2c(=O)c2ccc(Cl)c(Cl)c21 [Compound 264]
3.52 to 4.00,B (“B” = 0-2° C.),,O=C(O)Cn1c2cc(-c3nccs3)ccc2c(=O)c2ccc(Cl)c(Cl)c21 [Compound 187]
< 3.52,A (“A” < 0° C.),,Cn1ccnc1-c1ccc2c(=O)c3ccc(Cl)c(Cl)c3n(CC(=O)O)c2c1 [Compound 188]
< 3.52,"C (“C” = 2-7° C,)",,O=C(O)Cn1c2cc(-c3cccnc3)ccc2c(=O)c2ccc(Cl)c(Cl)c21 [Compound 190]
> 4.70,D (“D” > 7° C.),,CSc1c(Cl)ccc2c(=O)c3ccc(Nc4ccc(F)cc4)cc3n(CC(=O)O)c12 [Compound 259]
3.52 to 4.00,A (“A” < 0° C.),,CC(C)(O)c1ccc2c(=O)c3ccc(Cl)c(Cl)c3n(CC(=O)O)c2c1 [Compound 168]
4.00 to 4.70,D (“D” > 7° C.),,COc1c(Cl)ccc2c(=O)c3ccc(C4=CCCOC4)cc3n(CC(=O)O)c12 [Compound 252]
< 3.52,A (“A” < 0° C.),,O=C(O)CCCn1c2ccccc2c(=O)c2ccc(Cl)c(Cl)c21 [Compound 205]
4.00 to 4.70,D (“D” > 7° C.),,CSc1ccc2c(=O)c3ccc(Cl)c(Br)c3n(CC(=O)O)c2c1 [Compound 196]
4.00 to 4.70,D (“D” > 7° C.),,CN(C)c1c(Cl)ccc2c(=O)c3ccccc3n(CC(=O)O)c12 [Compound 136]

# Reference: patent US11414387B2, “Oxoacridinyl acetic acid derivatives and methods of use” (Stingthera, Inc., priority 2017, dated 2022)
